Measurements reported in patent US8318809B2, “Compositions and methods for treating jellyfish stings” (priority 2006, dated 2012).
Where a name gives a salt, the structure may show the parent alone.

Assays:
[1] = test system: sea wasp (Chiropsalmus quadumanus) stings; test: Jellyfish sting test on inner forearm of human test subjects, sea wasp; assay type: in vivo; conditions: for maintenance of relief: 5% lidocaine in 80:20 water:propylene glycol, 5% benzocaine in 90:10 propylene glycol:acetone, control sites decreased after 2-3 h; for red rash at sting site: 5% lidocaine or 5% benzocaine formulations vs other treatments; for time to sting relief: 10% lidocaine in 50:50 water:propylene glycol, 10% benzocaine in 90:10 propylene glycol:acetone
Text: These are the two most common types of stinging jellies that occur with frequency and/or regularity in normal swimming waters on the USA east coast north of Cape Canaveral.
(§1) Living healthy specimens were captured locally using trawls and dip-nets. They were maintained in flowing seawater aquariums (ca. 500 liters) for days-weeks; sea nettles maintained for long periods were fed live minnows (mummichugs).
Healthy, actively swimming jellyfish were used in all examples, and the same procedure was applied in all cases.
Stings from sea wasps were induced by manually holding a live specimen by its bell, and dragging the tentacles across the inner forearm of the test subject. […] Stings from the larger sea nettles were induced using tweezers to manually remove tentacles from living specimens and dragging them across the inner lower forearms of test subjects.
(§2) Products were applied to sting sites within 1-2 minutes unless otherwise noted below. […] Thus one forearm was used for each treatment effect, and each forearm included two sting sites: one received a treatment while the other served as an untreated control. Tests were either conducted simultaneously in duplicate using two subjects, or sequentially several hours apart using the same subject.

[2] = stated as known; cited from earlier work
tongue = test: Minimum response time to topically applied anesthetic on the tongue; assay type: in vivo, human; conditions: Example 5; 5 mg of pure compound applied to the tongue
Procedure: Two formulations were tested in the present example to test the minimum response time of the human body to topically applied lidocaine and benzocaine:
5 mg of pure benzocaine applied to the tongue

Solubility in water = assay type: physicochemical; conditions: Example 13 remark
jellyfish stings [3] = test: Jellyfish sting test, jellyfish species not stated; assay type: in vivo, human; conditions: Example 20; 4% lidocaine hydrochloride in water
Text: […] Healthy, actively swimming jellyfish were used in all examples, and the same procedure was applied in all cases. The same human test subjects were used in all experiments, in order to have continuity and be able to qualitatively compare treatment effects among experimental dates.
(§3) Stings from sea wasps were induced by manually holding a live specimen by its bell, and dragging the tentacles across the inner forearm of the test subject. Sea-wasps caused immediate stinging sensations. Stings from the larger sea nettles were induced using tweezers to manually remove tentacles from living specimens and dragging them across the inner lower forearms of test subjects. Sea-nettle stings were of the same or somewhat more intensity as those of sea wasps, but were not felt until about 15 s after contact, perhaps because the tentacles have visibly thicker gelatinous coatings.
as §2

jellyfish stings [4] = test: Beach surveys of beachgoers stung by a jellyfish; assay type: in vivo, human
Procedure: The beach surveys were conducted on beachgoers that stated they had been stung by a jellyfish. All participants voluntarily filled out an 8 question survey.
Locations: Tybee Island, Ga., Saint Simons Island, Ga., Hilton Head, S.C., Jacksonville beach, Fla., Daytona beach, Fla.
Time to application: Varied based on the person surveyed. Average times from sting to treatment ranged from 5 to 15 minutes.
Application to relief: Most respondents noted that they began to feel relief at the 1 minute mark. Based on an average level of affected area (less than 10% body coverage) the respondents noted virtually all the pain subsided by the 5 minute mark. (Most of the respondents who noted “some relief” departed within 2 minutes, which is the approximately time it took them to fill out the survey. Some of these respondents later returned to report total relief, but this is not shown in the data below). The results are presented in Table 3 and FIG. 2, below (total respondents: 232).

[5] = test system: nematocysts of sea nettle tentacles; test: Microscopy observations of nematocyst responses to product exposure; conditions: Example 11; pipetted onto tentacles in seawater, viewed at 60×; lidocaine as 10% solution in seawater
Text: Tentacles were removed using tweezers from an actively swimming sea nettle, placed in a glass Petri dish in seawater collected from the jellyfish tank (same salinity), and viewed at 60× under a zoom stereomicroscope while various liquid chemicals were pipetted directly onto the tentacles.

chigger bites = test: Chigger bite treatment, one subject; assay type: in vivo, human; conditions: Example 22; two bites per treatment; lidocaine as 4% solution in water
Text: Subject received 6 chigger bites on inner thigh area. Subject applied the formulation to two of the chigger bites, treated two others with Chigger Rid®, a drug store product, and applied clear finger nail polish, a home remedy, to the final two bites.

[6] = test system: sea nettle (hrysaora quinquecirrha) stings; test: Jellyfish sting test on inner forearm of human test subjects, sea nettle; assay type: in vivo
Text: Two genera of jellyfish were used in examples 2-19 described below: Chiropsalmus quadumanus, a cubomedusa and member of the Scyphozoa, also known as the sea wasp; and another scyphozoan jellyfish, hrysaora quinquecirrha, commonly called the sea nettle. These are the two most common types of stinging jellies that occur with frequency and/or regularity in normal swimming waters on the USA east coast north of Cape Canaveral.
as §1
For examples 3-19, with the exception of the commercially available spray products and the meat tenderizer paste solution, all of the other test solutions were in liquid form and were applied using a one milliliter pipetter and sterile tips.
For examples 3-19 below, the following general procedures were followed. Healthy, actively swimming jellyfish were used in all examples, and the same procedure was applied in all cases. The same human test subjects were used in all experiments, in order to have continuity and be able to qualitatively compare treatment effects among experimental dates.
as §3
Products were applied to sting sites within 1-2 minutes unless otherwise noted below. […] Thus one forearm was used for each treatment effect, and each forearm included two sting sites: one received a treatment while the other served as an untreated control. […]

fire ant bites = test: Fire ant bite treatment, one subject; assay type: in vivo, human; conditions: Example 23
Procedure: The subject for this example had substantial experience with fire ant bites, with general symptoms of blistering, itching, pain associated with the bites. […] Subject received 7 fire ant bites while gardening outside. Subject applied the formulation to the seven bites approximately 15 minutes after the bites occurred.

[7] = 4% Lidocaine and water, pump or trigger spray, total respondents 232

N [Ammonia]
treatment effect on sting pain ([1]; Example 3, sea wasps 2″ bell, meat tenderizer paste, ammonia and vinegar store-bought full strength, vs untreated control site): increased the initial pain

CCOC(=O)c1ccc(N)cc1 [benzocaine]
maintenance of relief ([1]; Example 3): maintained until the stinging sensation eventually decreased in control sites | red rash at sting site ([1]; Example 3, sea wasps 2″ bell): substantially reduced | time to sting relief ([1]; Example 4, sea wasp 3″ bell): 60 to 90 s | solubility in water [2]: sparingly soluble in water | onset of localized numbness (tongue): 30 s | dissolves in water (Solubility in water): does not dissolve in water

CCN(CC)CC(=O)Nc1c(C)cccc1C [lidocaine hydrochloride]
time to initial pain relief after application (jellyfish stings [3]): around one

CCN(CC)CC(=O)Nc1c(C)cccc1C [lidocaine]
maintenance of relief ([1]; Example 3): maintained until the stinging sensation eventually decreased in control sites | red rash at sting site ([1]; Example 3, sea wasps 2″ bell): substantially reduced | redness at the sting site ([1]; Example 4, 10% lidocaine formulation compared with 10% benzocaine formulation): appeared to reduce redness at the sting site more than the benzocaine formulation | time to sting relief ([1]; Example 4, sea wasp 3″ bell): 30 to 60 s | rash ([1]; Example 6, 10% compared to 5% lidocaine in 80:20 water:propylene glycol): somewhat less pronounced | pain relief ([1]; Example 6, both 5% and 10% lidocaine in 80:20 water:propylene glycol, sea wasp 3″ bell, compared to no treatment): substantial pain relief | time to substantial relief ([1]; Example 7, 10% lidocaine in 80:20 water:propylene glycol without acetic acid, sea wasps 2″ bell, untreated stinging lasted about 30 minutes): about 1 minute | relief after delayed application ([1]; Example 8, 10% lidocaine in 80:20 water:propylene glycol applied 5 min after sting): provided relief as though applied immediately | time to relief ([1]; Example 8, 10% lidocaine in 80:20 water:propylene glycol applied immediately, sea wasp 2″ bell): approximately 1 minute | time at which most respondents began to feel relief (jellyfish stings [4]; 4% Lidocaine and water spray, 5 to 15 minutes from sting to treatment): 1 min | time by which virtually all the pain subsided (jellyfish stings [4]; 4% Lidocaine and water spray, affected area less than 10% body coverage): ≤ 5 min | number of respondents: Much relief (jellyfish stings [4]; [7]): 128 | number of respondents: No relief (jellyfish stings [4]; [7]): 0 | number of respondents: Some relief (jellyfish stings [4]; [7]): 32 | number of respondents: Total relief (jellyfish stings [4]; [7]): 72 | nematocyst firing [5]: did not cause nematocysts from a new tentacle to fire | itching of chigger bites after treatment (chigger bites): ceased itching within minutes of application with no further symptoms | performance as judged by the test subjects ([6]; Example 9, 10% lidocaine in water only compared with 10% lidocaine in 80:20 water:propylene glycol, sea nettle 6″ bell): slightly superior | acted faster by ([6]; Example 16, 15% lidocaine in water compared with 10% lidocaine in water, sea nettle 4″ bell): 10 to 15 s | onset of localized numbness (tongue): 30 s | blister formation (fire ant bites; 4% lidocaine and water applied approximately 15 minutes after the bites): typical blisters did not form | relief from pain and itching (fire ant bites; 4% lidocaine and water applied to 7 bites approximately 15 minutes after the bites): complete relief from pain and itching

NC(N)=O [urea]
effect on the soothing effect of lidocaine ([6]; Example 12, 10% urea added to 10% lidocaine in water): did not appear to help or impede
